{
  "source": "patent US20220105157A1",
  "about": "“Compositions and Methods for Promoting Angiogenesis in the Eye” (The Regents of the University of California, priority 2019, published 2022)",
  "key": {"[1]": {"test_system": "bovine retinal endothelial (BRE) cells", "assay": "BRE endothelial cell proliferation assay (alamar blue)", "type": "cell-based", "method": "(§1) The bovine endothelial proliferation assays were performed essentially as previously described (63, 64). BCE (1×10^3 cells/well) or BRE (5×10^2 cells/well) cells were seeded in 96-well plates in the culture medium (DMEM-low glucose supplemented with 10% BCS, 2 mM glutamine and antibiotics) plus testing materials with a total volume of 200 μl per well. BAE cells were plated in 96-well plates at a density of 2×10^3 cells in the culture medium (DMEM-low glucose supplemented with 1% BCS and antibiotics) plus testing material with a total volume of 200 μl per well. HRME cells were seeded at a density of 1×10^3 cells/well in gelatin-coated 96-well plates in assay medium (DMEM-low glucose supplemented with 20% FBS and antibiotics) plus testing materials to make a total volume 200 μl per well. For assays involving antibodies or small-molecule inhibitors, inhibitors or vehicle controls were first added and then test materials were added one hour later. After 6 days (unless otherwise specified), cells were incubated with alamar blue for 4 h. Fluorescence was measured at 530 nm excitation wavelength and 590 nm emission wavelength. Each experiment was carried out in duplicate/triplicate and repeated at least three times."}, "[2]": {"test_system": "phosphorylation of STAT3, ERK and AKT in BAE cells", "assay": "Western blotting of LIF signaling in BAE cells", "type": "cell-based, bovine", "conditions": "LIF treatment for 15 minutes", "method": "BCE and BAE cells were cultured in growth medium overnight. Growth medium was removed and then cells were washed twice with PBS. Recombinant human LIF was added to cells for 15 minutes, following 3-hour incubation in the following medium: DMEM-low glucose supplemented with 10% BCS, 2 mM glutamine and antibiotics for BCE cells, and DMEM-low glucose supplemented with 1% BCS and antibiotics for BAE cells. […] Cells were then lysed with RIPA lysis buffer (Life Technologies, CAT #89901) plus protease and phosphatase inhibitor cocktail (ThermoFisher Scientific CAT #78440). Protein concentrations in cell lysates were measured with the BCA assay (ThermoFisher Scientific CAT #23227). Equal amount of proteins were subjected to electrophoresis in NuPAGE 4-12% Bis-Tris gels (ThermoFisher Scientific, CAT #NW04125BOX) and then transferred onto PVDF membranes. Membranes were blocked with 5% non-fat milk in TBST at room temperature for 1 hour, incubated with primary antibodies indicated below in TBST containing 0.5% non-fat milk at 4° C. overnight then with secondary HRP-conjugated antibodies (1:2000, GE Healthcare) at room temperature for 1 h. Signals were developed with SuperSignal™ West Pico PLUS Chemiluminescent Substrate (ThermoFisher Scientific). Primary antibodies used: anti-phospho-STAT3 (Cell Signaling, CAT #9131, 1:3000), anti-STAT3 (Cell Signaling, CAT #4904, 1:3000), anti-phospho-ERK (Cell Signaling, CAT #4376, 1:5000), anti-ERK (Cell Signaling, CAT #4695, 1:5000), anti-phospho-AKT Ser473 (Cell Signaling, CAT #4060, 1:2000), anti-AKT (Cell Signaling, CAT #4691, 1:2000) and HRP-conjugated anti-beta-actin (Sigma, CAT #AC-15, 1; 10000)."}, "BCE cells": {"test_system": "BCE cells", "assay": "Gene expression in LIF-treated BCE cells (RNA-seq, qRT-PCR)", "type": "cell-based, bovine", "method": "BCE and BAE cells, after the indicated treatments, were lysed with Trizol reagent (Invitrogen, CAT #15596026) and subjected to RNA extraction following manufacturer's instructions. RNA concentrations were determined with Nanodrop 2000 (ThermoFisher Scientific) and 1 μg of total RNAs were reverse-transcribed to cDNAs using the High-Capacity cDNA Reverse Transcription Kit (Applied Biosystems, CAT #4368814). Equal amounts (generally 10 ng/reaction) of cDNAs were subjected to qRT-PCR analyses using the TaqMan Fast Advanced Master Mix (Applied Biosystems, CAT #4444557) and the ViiA7 Real-time PCR system. Relative mRNA levels of the examined genes were normalized to the internal control RPLP0 (Ribosomal Protein Lateral Stalk Subunit P0), determined by comparing with control sample group, and reported as fold changes. TaqMan gene expression assay probes were used: bovine RPLP0 (Bt03218086_ml), bovine STAT3 (Bt03259865_ml), bovine CTSL1 (Bt03257307_ml and Bt03257309_ml), bovine CTSB (Bt03259161_ml), bovine MYC (Bt03260377_ml), bovine JunB (Bt03246919_s1), bovine CCNA2 (Bt03240503_g1), bovine CCNB1 (Bt03237853_g1), and bovine PIM1 (Bt03212957_ml). The experiment was carried out in triplicate and repeated three times."}, "[3]": {"test_system": "human retinal microvascular endothelial (HRME) cells", "assay": "HRME endothelial cell proliferation assay (alamar blue)", "type": "cell-based", "method": "as §1"}},
  "data": [
    {"substance": "LIF: recombinant human leukemia inhibitory factor, a member of the IL-6 family of cytokines", "values": [
      {"measurement": "mitogenic activity on BRE cells", "setting": "[1]", "result": "exerted mitogenic activity"},
      {"measurement": "phosphorylation of AKT", "setting": "[2]", "result": "led to phosphorylation"},
      {"measurement": "phosphorylation of ERK (MAPK)", "setting": "[2]", "result": "led to phosphorylation"},
      {"measurement": "phosphorylation of STAT3", "setting": "[2]", "result": "led to phosphorylation"},
      {"measurement": "upregulation of IGFBP3", "setting": "BCE cells; BCE cells incubated with LIF for 6 hours, RNA-seq", "result": "not in BCE cells"},
      {"measurement": "MYC expression", "setting": "BCE cells; BCE cells, LIF treatment", "result": "upregulation"},
      {"measurement": "cathepsin L mRNA (CTSL) levels", "setting": "BCE cells; BCE cells, vehicle or LIF, qRT-PCR", "result": "not detectable"},
      {"measurement": "effect on VEGF-stimulated growth of human retinal microvascular endothelial cells", "setting": "[3]; LIF added to VEGF", "result": "significantly enhanced VEGF-stimulated growth"},
      {"measurement": "mitogenic response in human retinal microvascular endothelial cells", "setting": "[3]; LIF alone", "result": "did not elicit a strong mitogenic response"}
    ]}
  ]
}
